# According to patent publication US7179821B2, “Method of treating of demyelinating diseases or conditions” (Aventis Pharmaceuticals Inc., priority 2001, dated 2007):
# Marks after values point to notes of the source that are not given here.
# Key:
# [1] = system: spinal cord crush-induced motor impairments; experiment: Acute treatment after moderate spinal cord crush (1.4 mm), Open Field Walking Scale; assay type: in vivo, rat
# [2] = system: long-standing (25 days) spinal cord injury of minor intensity; experiment: Chronic crush experiment, 25-day old mild compression injury (1.6 mm), OFT score; assay type: in vivo, rat; settings: for OFT score 3 hours after last dose (Day 28, mild) / OFT score 3 hours after last dose: three consecutive daily doses; for OFT score prior to dose (Day 25, mild): group 3 mg/kg po; for OFT score prior to dose (Day 25, mild) / OFT score prior to dose: baseline before dosing
# Excerpt: Normal spinal cord diameter is approximately 2.5 mm. This compression represents a moderate injury characterized by initial open field walking scores of 1.5–2.5 in the Open Field Walking Scale. […] The spinal cords of female rats were exposed to laminectomy or crush to a diameter of 1.6 mm. This represented a minor injury, and was designed to result in OFT scores of 4.0 after 25 days of no treatment. […] In this experiment, OFT scores were slightly higher (4.3–4.5), leaving only a small window for improvement. […] Consistent improvement was also observed after once a day ip 0.6 mg/kg 4-AP as well. The statistical differences were based upon the changes for each individual rat (each rat was its own control) using Mann-Whitney U-test. All the behavioral tests on day1, day2 and day3 were performed at 3 hours after gavage. There was no drug given on day3 (first day started to give drug was day 0).
# [3] = micromolar brain concentrations one hour after ip administration of 30 mg/kg in rats; cited from earlier work
compound,measurement,setting,value
"CCCN(c1ccncc1F)n1cc(C)c2ccccc21 [HP184, N-(3-fluoro-4-pyridinyl)-N-propyl-3-methyl-1H-indole-1-amine]",rate and extent of improvement of OFT score,"[1]; 20 and 5 mg/kg ip within 15 minutes of crush, repeated days 2 and 3, FIG. 2",significantly different from vehicle treated rats
same,rate and extent of improvement of OFT score,"[1]; po 5–10 minutes prior to crush, then once a day days 2 and 3, vs vehicle treated group, FIG. 3",improved for all doses
same,OFT improvement compared to vehicle control (Mann-Whitney U-test),"[2]; 3 mg/kg po once a day, p=0.0027",significant improvement at 30 min to 6 h to day 1
same,"OFT score 3 hours after last dose (Day 28, mild)",[2]; 3 mg/kg po once a day,4.47 ± .035
same,"OFT score 3 hours after last dose (Day 28, mild)","[2]; 3 mg/kg po once a day, listed as HP",4.47 ± 0.04
same,OFT improvement compared to vehicle control (Mann-Whitney U-test),"[2]; 10 mg/kg po once a day, p=0.014",significant improvement at 30 min and 3 h to 12 h
same,OFT score 3 hours after last dose,[2]; 10 mg/kg po once a day,4.44 ± 0.03
same,OFT improvement compared to vehicle control (Mann-Whitney U-test),"[2]; 20 mg/kg po once a day, p=0.002",significant improvement at 3 h to day 3
same,OFT score 3 hours after last dose,[2]; 20 mg/kg po once a day,4.60 ± 0.02
same,"% possible improvement (highest score = 5), mild",[2]; 3 mpk po,22.0%*
same,"Delta of OFT score, Day 25 to Day 28 (mild)",[2]; 3 mpk po,.15
same,"OFT score prior to dose (Day 25, mild)",[2],4.32 ± .016
same,"OFT score prior to dose (Day 25, mild)",[2]; listed as HP,4.32 ± 0.05
same,OFT score prior to dose,[2]; group 10 mg/kg po,4.36 ± 0.01
same,OFT score prior to dose,[2]; group 20 mg/kg po,4.54 ± 0.02
same,tolerability,[3],very well-tolerated
